The structures appear in SMILES notation.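 Values below derive from 48-hour exposures of cells grown in 96-well plates, with endpoints linearly interpolated between the two concentrations bracketing the appropriate inhibition level. Abbreviation: GI50, concentration required for 50% inhibition of growth.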 The source made the active and inactive calls. Rule as the data show it: active = GI50 up to about 1.1 µM and inactive = higher.

Among the test systems are KM12; SK-MEL-5; MDA-N; HCT-15; SK-MEL-2; MOLT-4; SN12C; OVCAR-3; M14; UO-31; MDA-MB-231; DU-145; NCI-H460; SW-620; K562; OVCAR-5; EKVX; A498; SF-295; HOP-92.
Experiment in all cases: NCI-60 cell line screen, 48 h

Regarding `S=C(Nc1ccccn1)Nc1ccccc1Cl`, the GI50 was > 44.4 µM (inactive) with KM12; 42.4 µM (inactive) in the assay with SK-MEL-5; > 100 µM (inactive) in the assay with MDA-N; 59.8 µM in the assay with HCT-15; > 100 µM (inactive) in the assay with SK-MEL-2; > 100 µM (inactive) in the assay on MOLT-4. For the same molecule, the GI50 is > 100 µM (inactive) in the assay with SN12C; > 67.1 µM (inactive) in the assay with OVCAR-3; > 100 µM (inactive) with M14; > 100 µM (inactive) in the assay with UO-31; 61.9 µM (inactive) in the assay with MDA-MB-231; > 100 µM (inactive) with DU-145. Also, the GI50 is 71 µM (inactive) with NCI-H460; > 80.5 µM (inactive) in the assay with SW-620; > 100 µM (inactive) in the assay with K562; > 50.2 µM (inactive) in the assay on OVCAR-5; 8.51 µM (inactive) in the assay with EKVX; > 84.3 µM (inactive) in the assay on A498. Further, the GI50 in the assay with SF-295 was > 64.9 µM (inactive).

Take `O=C(NNC(=O)c1ccccc1O)c1ccco1`: the GI50 was > 100 µM (inactive) with KM12; > 100 µM (inactive) in the assay with SK-MEL-5; > 100 µM (inactive) in the assay on MDA-N; 61.1 µM in the assay with HCT-15; > 100 µM (inactive) in the assay on SK-MEL-2; > 100 µM (inactive) in the assay with MOLT-4. Besides, the GI50 in the assay on SN12C was > 100 µM (inactive); in the assay with OVCAR-3, 57.4 µM (inactive); in the assay on M14 it was > 100 µM (inactive); in the assay with UO-31, > 100 µM (inactive); with MDA-MB-231, 60.5 µM (inactive); in the assay on DU-145, > 100 µM (inactive). For the same molecule, the GI50 in the assay on NCI-H460 is 45.4 µM (inactive); in the assay on SW-620, 67.8 µM (inactive); in the assay with K562, > 100 µM (inactive); with OVCAR-5, > 100 µM (inactive); in the assay with EKVX, > 100 µM (inactive); in the assay on A498, > 100 µM (inactive). Besides, the GI50 in the assay with SF-295 was > 100 µM (inactive).

In the case of `Cc1nc2cc(Cl)c(N)cc2[nH]1`, the GI50 is > 100 µM (inactive) in the assay with KM12; > 100 µM (inactive) in the assay on SK-MEL-5; > 100 µM (inactive) in the assay on MDA-N; > 100 µM in the assay on HCT-15; > 100 µM (inactive) in the assay on SK-MEL-2; > 100 µM (inactive) in the assay with MOLT-4. The GI50 with SN12C, in the assay with OVCAR-3, with M14, in the assay on UO-31, in the assay with MDA-MB-231 and in the assay with DU-145 was > 100 µM (inactive) throughout. Besides, the GI50 in the assay with NCI-H460, in the assay on SW-620, in the assay on K562, with OVCAR-5, in the assay with EKVX and in the assay on A498 was > 100 µM (inactive) in each case. The GI50 in the assay on SF-295 is > 100 µM (inactive).

Turning to `Nc1ccn(C2CCC(COP(=O)(O)OCC(O)COP(=O)(O)OCC3OC(n4cc(F)c(=O)[nH]c4=O)CC3O)O2)c(=O)n1` (configuration not stated), the GI50 in the assay on KM12 is > 38.1 µM (inactive); in the assay with SK-MEL-5 it was 0.514 µM (active); in the assay on MDA-N it was 8.34 µM (inactive); with HOP-92 it was 0.0419 µM (active); with HCT-15 it was 14.4 µM; in the assay with SK-MEL-2 it was 75.3 µM (inactive). Also, the GI50 is 0.102 µM (active) in the assay with MOLT-4; 0.135 µM (active) in the assay with SN12C; 23.2 µM (inactive) with OVCAR-3; 0.473 µM (active) with M14; 0.0622 µM (active) in the assay with UO-31; 44.1 µM (inactive) in the assay on MDA-MB-231. Also, the GI50 is 0.165 µM (active) in the assay with DU-145; < 0.01 µM (active) with NCI-H460; > 100 µM (inactive) in the assay on SW-620; 2.61 µM (inactive) in the assay on K562; 9.93 µM (inactive) with OVCAR-5; > 75.9 µM (inactive) in the assay on EKVX. Besides, the GI50 in the assay on SF-295 was 0.0459 µM (active).

On to `O=c1[nH]c(=O)n(C2OC(CO)C(O)C2O)c2nc(-c3ccc(-c4ccccc4)cc3)cnc12` (configuration not stated), for which the GI50 in the assay on KM12 was > 100 µM (inactive); with SK-MEL-5 it was 40.6 µM (inactive); with MDA-N it was > 100 µM (inactive); in the assay on HOP-92, > 100 µM (inactive); with HCT-15, > 100 µM; in the assay on SK-MEL-2, > 100 µM (inactive). Moreover, the GI50 in the assay with MOLT-4 is > 100 µM (inactive); with SN12C, > 100 µM (inactive); in the assay on M14, 81.8 µM (inactive); in the assay on UO-31, > 100 µM (inactive); in the assay with MDA-MB-231, > 100 µM (inactive); with DU-145, > 100 µM (inactive). Further, the GI50 in the assay on NCI-H460, in the assay with SW-620, in the assay on K562, in the assay on OVCAR-5, with EKVX and in the assay on A498 was > 100 µM (inactive) each time. Moreover, in the assay on SF-295, the GI50 was > 100 µM (inactive).

Consider `Cn1c2ccccc2c2c(=O)[nH]c(=O)[nH]c21`, for which the GI50 in the assay with KM12 was > 100 µM (inactive); in the assay on SK-MEL-5 it was > 100 µM (inactive); with MDA-N it was > 100 µM (inactive); in the assay with HOP-92 it was > 100 µM (inactive); in the assay on HCT-15, > 100 µM; in the assay with SK-MEL-2, > 100 µM (inactive). Moreover, the GI50 in the assay with MOLT-4, with SN12C, in the assay with OVCAR-3, in the assay on M14, in the assay with UO-31 and with MDA-MB-231 was > 100 µM (inactive) throughout. In addition, the GI50 in the assay on DU-145, in the assay on SW-620, in the assay on K562, with OVCAR-5, in the assay with EKVX and with A498 was > 100 µM (inactive) each time. Also, the GI50 with SF-295 is > 100 µM (inactive).

In the case of `CCSC1=N/C(=C\c2ccco2)C(=O)N1`, the GI50 in the assay on KM12 was > 100 µM (inactive); with SK-MEL-5, > 100 µM (inactive); with MDA-N it was > 100 µM (inactive); in the assay on HOP-92, 93.3 µM (inactive); in the assay with HCT-15, > 100 µM; with SK-MEL-2, > 100 µM (inactive). Besides, the GI50 in the assay on MOLT-4, in the assay on SN12C, in the assay with OVCAR-3, in the assay on M14, with UO-31 and in the assay on MDA-MB-231 was > 100 µM (inactive) in each case. For the same molecule, the GI50 with DU-145, in the assay on SW-620, with K562, with OVCAR-5, with EKVX and in the assay with A498 was > 100 µM (inactive) each time. Also, the GI50 in the assay with SF-295 is > 100 µM (inactive).

For the molecule `COCN1C(=O)[C@@H]2CCCN2C(=O)c2cc(N)ccc21`, the GI50 in the assay on KM12 is > 100 µM (inactive); in the assay on MDA-N, > 100 µM (inactive); in the assay with HCT-15 it was > 100 µM; with SK-MEL-2 it was > 100 µM (inactive); in the assay on SN12C, > 100 µM (inactive); with M14 it was > 100 µM (inactive). Further, the GI50 in the assay on UO-31, with MDA-MB-231, in the assay with DU-145, in the assay on SW-620, in the assay on OVCAR-5 and in the assay with EKVX was > 100 µM (inactive) throughout. Moreover, the GI50 in the assay on A498 and in the assay with SF-295 was > 100 µM (inactive) throughout.

As to `COc1c(-c2ccc3c(c2)OCO3)oc2cc(O)cc(O)c2c1=O`, the GI50 was 64.7 µM (inactive) in the assay with KM12; 56.5 µM (inactive) with SK-MEL-5; 62.7 µM (inactive) with MDA-N; 34.3 µM (inactive) with HOP-92; 55.6 µM in the assay on HCT-15; > 100 µM (inactive) in the assay on SK-MEL-2. Also, the GI50 with MOLT-4 was 21.2 µM (inactive); with SN12C, 51.1 µM (inactive); in the assay on M14, 69.8 µM (inactive); in the assay on UO-31, 7.19 µM (inactive); with MDA-MB-231, 97.7 µM (inactive); in the assay on DU-145, 59.3 µM (inactive). For the same molecule, the GI50 in the assay with NCI-H460 is 64 µM (inactive); with K562, 45.1 µM (inactive); with OVCAR-5, > 100 µM (inactive); in the assay with EKVX, 43.7 µM (inactive); with A498, 21.9 µM (inactive); with SF-295, 34.4 µM (inactive).

Regarding `N=C(N)NS(=O)(=O)c1ccc(NC(=O)c2ccc3nc4ccccc4c(O)c3c2)cc1`, the GI50 with KM12 was > 100 µM (inactive); in the assay on SK-MEL-5, > 100 µM (inactive); in the assay on MDA-N it was > 100 µM (inactive); in the assay on HOP-92 it was > 100 µM (inactive); in the assay with HCT-15 it was > 100 µM; in the assay with SK-MEL-2 it was > 100 µM (inactive). Moreover, the GI50 in the assay on MOLT-4, in the assay with SN12C, in the assay with OVCAR-3, with M14, with UO-31 and with MDA-MB-231 was > 100 µM (inactive) each time. Further, the GI50 with DU-145, with NCI-H460, in the assay on SW-620, with K562, with OVCAR-5 and in the assay on EKVX was > 100 µM (inactive) in each case. In the assay on SF-295, the GI50 is > 100 µM (inactive).

Turning to `Cn1nc2ccc([N+](=O)[O-])cc2[n+]1[O-]`, the GI50 was > 100 µM (inactive) with KM12; > 100 µM (inactive) in the assay with SK-MEL-5; 90.4 µM (inactive) with MDA-N; > 100 µM in the assay on HCT-15; > 100 µM (inactive) in the assay on SK-MEL-2; > 100 µM (inactive) in the assay on MOLT-4. For the same molecule, the GI50 is 22.4 µM (inactive) in the assay on SN12C; > 100 µM (inactive) in the assay with OVCAR-3; > 100 µM (inactive) in the assay on M14; > 100 µM (inactive) with UO-31; > 100 µM (inactive) in the assay on MDA-MB-231; > 100 µM (inactive) with DU-145. Moreover, the GI50 is > 100 µM (inactive) in the assay with NCI-H460; > 100 µM (inactive) with K562; > 100 µM (inactive) with OVCAR-5; > 100 µM (inactive) with EKVX; 87.9 µM (inactive) in the assay on A498; > 100 µM (inactive) in the assay on SF-295.

Values taken from ChEMBL document CHEMBL1201862, “PubChem BioAssay data set” (2004).
